Where a name gives a salt, the structure may show the parent alone.
Molecular target: T1, CDK11A (Homo sapiens, UniProt Q9UQ88)
T1 sequence (Q9UQ88 346-783): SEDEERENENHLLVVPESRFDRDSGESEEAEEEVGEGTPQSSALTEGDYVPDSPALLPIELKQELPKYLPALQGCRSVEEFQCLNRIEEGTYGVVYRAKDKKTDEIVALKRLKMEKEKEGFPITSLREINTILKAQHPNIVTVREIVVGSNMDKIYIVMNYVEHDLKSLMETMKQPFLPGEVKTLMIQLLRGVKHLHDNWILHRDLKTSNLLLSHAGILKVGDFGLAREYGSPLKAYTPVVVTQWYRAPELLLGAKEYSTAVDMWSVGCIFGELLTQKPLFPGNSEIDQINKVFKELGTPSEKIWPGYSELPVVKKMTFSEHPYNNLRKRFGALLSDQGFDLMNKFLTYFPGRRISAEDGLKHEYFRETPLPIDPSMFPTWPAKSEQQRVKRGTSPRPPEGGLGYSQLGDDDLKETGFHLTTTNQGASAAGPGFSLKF
Conditions: displacement of SNS-032-Atto590 probe (0.002 μM) from CDK11A-p58 (0.032 uM), fluorescence polarization
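Further: compound preincubated 30 min with CDK11A-p58, then probe added and polarization (mP) read 15 min later, 0% displacement is probe plus enzyme, 100% is probe alone.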

Protocol: Biochemical Kinase Inhibition Assay on CDK11 in Displacement Assay Format
Displacement Assay Format
Fluorescence Polarization (FP) experiments were carried out at room temperature using no-binding black 384-well microplates (Corning, NY), in 50 mM Tris HCl, pH 8, 10 mM MgCl2, 1 mM DTT, 1 mM CHAPS in a final volume of 60 μl. The plate reader was the Pherastar microplate reader (BMG). Polarization values were read using excitation and emission wavelengths of 590 and 675 nm, respectively. All FP values are expressed as mP units.
Compounds were 4-folds serially diluted in 100% DMSO and added directly to the CDK11A-p58 solution using the pin tool (V & P Scientific): 0.2 ul of the different compound concentrations in 20 ul of enzyme solution. After an incubation of 30 minutes at r.t., 40 ul of probe solution were added. […] The Pherastar reading is performed after 15 minutes of all components incubation. For each assay, high controls (equivalent to 0% displacement) contain probe, CDK11A-p58, and 0.33% DMSO, whereas low controls (equivalent to 100% displacement) contain only probe and 0.33% DMSO. Controls are used for the Z′ and signal to background evaluation.
The data per each molecule are analyzed by Prism SW or an internally customized version of the SW package “Assay Explorer” which provides sigmoidal fittings of the ten-dilution curves for DC50 determination using a 4 parameters logistic equation:
where x is the logarithm of the inhibitor concentration, y is the response; y starts at bottom and goes to top with a sigmoid shape.

SMILES	DC50
CN1CCC(C(=O)Nc2n[nH]c3ccc(-c4ccccc4F)cc23)CC1 [cpd 78, N-[5-(2-Fluorophenyl)-1H-indazol-3-yl]-1-methylpiperidine-4-carboxamide hydrochloride]	308 nM
COc1ccc(F)c(-c2ccc3[nH]nc(NC(=O)[C@@H]4CCCNC4)c3c2)c1 [cpd 20, (3R)-N-[5-(2-Fluoro-5-methoxyphenyl)-1H-indazol-3-yl]piperidine-3-carboxamide hydrochloride]	89 nM
CN1CCC(C(=O)Nc2n[nH]c3ccc(-c4cccc(C#N)c4)cc23)CC1 [cpd 89, N-[5-(3-Cyanophenyl)-1H-indazol-3-yl]-1-methylpiperidine-4-carboxamide hydrochloride]	784 nM
CCc1ccccc1-c1ccc2[nH]nc(NC(=O)C3CCN(C)CC3)c2c1 [cpd 88, N-[5-(2-Ethylphenyl)-1H-indazol-3-yl]-1-methylpiperidine-4-carboxamide hydrochloride]	822 nM
O=C(Nc1n[nH]c2ccc(-c3cc(OC(F)(F)F)ccc3F)cc12)[C@@H]1CCCNC1 [cpd 23, (3R)-N-{5-[2-Fluoro-5-(trifluoromethoxy)phenyl]-1H-indazol-3-yl}piperidine-3-carboxamide hydrochloride]	75 nM
N#Cc1ccc(Cl)c(-c2ccc3[nH]nc(NC(=O)[C@H]4CNCCO4)c3c2)c1 [compound 182, (2R)-N-[5-(2-Chloro-5-cyanophenyl)-1H-indazol-3-yl]morpholine-2-carboxamide hydrochloride]	140 nM
COC(=O)c1cc(-c2ccc3[nH]nc(NC(=O)[C@@H]4CCNC4)c3c2)c(Cl)cc1N [cpd 54, Methyl 2-amino-4-chloro-5-(3-{[(3R)-pyrrolidin-3-ylcarbonyl]amino}-1H-indazol-5-yl)benzoate dihydrochloride]	102 nM
CN1CCC(C(=O)Nc2n[nH]c3ccc(-c4cccc(F)c4)cc23)CC1 [cpd 101, N-[5-(3-Fluorophenyl)-1H-indazol-3-yl]-1-methylpiperidine-4-carboxamide hydrochloride]	692 nM
C[C@H]1CC[C@@H](C(=O)Nc2n[nH]c3ccc(-c4c(Cl)cccc4Cl)cc23)CN1 [compound 177, (3R,6S)-N-[5-(2,6-Dichlorophenyl)-1H-indazol-3-yl]-6-methylpiperidine-3-carboxamide trifluoroacetate]	54 nM
CN1CCC(C(=O)Nc2n[nH]c3ccc(-c4ccc(C(N)=O)cc4)cc23)CC1 [cpd 109, N-[5-(4-Carbamoylphenyl)-1H-indazol-3-yl]-1-methylpiperidine-4-carboxamide hydrochloride]	967 nM
CN1CCC(C(=O)Nc2n[nH]c3ccc(-c4ccc(S(N)(=O)=O)cc4)cc23)CC1 [cpd 92, 1-Methyl-N-[5-(4-sulfamoylphenyl)-1H-indazol-3-yl]piperidine-4-carboxamide hydrochloride]	799 nM
CC(C)(CO)CN1CCC(C(=O)Nc2n[nH]c3ccc(-c4c(Cl)cccc4Cl)cc23)CC1 [cpd 71, N-[5-(2,6-Dichlorophenyl)-1H-indazol-3-yl]-1-(3-hydroxy-2,2-dimethylpropyl)piperidine-4-carboxamide]	135 nM
O=C(Nc1n[nH]c2ccc(-c3ccc(Cl)cc3Cl)cc12)[C@@H]1CCCNC1 [cpd 14, (3R)-N-[5-(2,4-Dichlorophenyl)-1H-indazol-3-yl]piperidine-3-carboxamide hydrochloride]	87 nM
O=C(Nc1n[nH]c2ccc(-c3cc(O)ccc3Cl)cc12)[C@@H]1CCCNC1 [cpd 41, (3R)-N-[5-(2-Chloro-5-hydroxyphenyl)-1H-indazol-3-yl]piperidine-3-carboxamide hydrochloride]	33 nM
O=C(Nc1n[nH]c2ccc(-c3c(Cl)cccc3Cl)cc12)[C@H]1CCNC1 [compound 168, (3S)-N-[5-(2,6-Dichlorophenyl)-1H-indazol-3-yl]pyrrolidine-3-carboxamide hydrochloride]	98 nM
CN1CCC(C(=O)Nc2n[nH]c3ccc(-c4c(F)cccc4F)cc23)CC1 [cpd 105, N-[5-(2,6-Difluorophenyl)-1H-indazol-3-yl]-1-methylpiperidine-4-carboxamide hydrochloride]	364 nM
CN1CCC(C(=O)Nc2n[nH]c3ccc(-c4c(Cl)cccc4Cl)cc23)CC1 [cpd 68, N-[5-(2,6-Dichlorophenyl)-1H-indazol-3-yl]-1-methylpiperidine-4-carboxamide]	85 nM
COCC(C)N1CCC(C(=O)Nc2n[nH]c3ccc(-c4c(F)cccc4Cl)cc23)CC1 (stereo not shown) [cpd 67, N-[5-(2-Chloro-6-fluorophenyl)-1H-indazol-3-yl]-1-(1-methoxypropan-2-yl)piperidine-4-carboxamide hydrochloride]	151 nM
CC(C)Oc1ccc2[nH]nc(NC(=O)[C@@H]3CCCNC3)c2c1 [cpd 230, (3R)-N-[5-(Propan-2-yloxy)-1H-indazol-3-yl]piperidine-3-carboxamide hydrochloride]	27 nM
CN1CCC(C(=O)Nc2n[nH]c3ccc(-c4ccc(F)cc4F)cc23)CC1 [compound 124, N-[5-(2,4-Difluorophenyl)-1H-indazol-3-yl]-1-methylpiperidine-4-carboxamide hydrochloride]	637 nM
CCCCCN1CCC(C(=O)Nc2n[nH]c3ccc(-c4cc(C#N)ccc4Cl)cc23)CC1 [compound 142, N-[5-(2-Chloro-5-cyanophenyl)-1H-indazol-3-yl]-1-pentylpiperidine-4-carboxamide hydrochloride]	95 nM
COC(=O)c1ccc(Cl)c(-c2ccc3[nH]nc(NC(=O)[C@@H]4CCNC4)c3c2)c1 [cpd 37, Methyl 4-chloro-3-(3-{[(3R)-pyrrolidin-3-ylcarbonyl]amino}-1H-indazol-5-yl)benzoate hydrochloride]	26 nM
Nc1ccc(Cl)c(-c2ccc3[nH]nc(NC(=O)[C@@H]4CCCNC4)c3c2)c1 [cpd 34, (3R)-N-[5-(5-Amino-2-chlorophenyl)-1H-indazol-3-yl]piperidine-3-carboxamide dihydrochloride]	19 nM
CC(C)c1ccc(Cl)c(-c2ccc3[nH]nc(NC(=O)[C@@H]4CCCNC4)c3c2)c1 [cpd 48, (3R)-N-{5-[2-Chloro-5-(propan-2-yl)phenyl]-1H-indazol-3-yl}piperidine-3-carboxamide hydrochloride]	310 nM
CCCCN1CCC(C(=O)Nc2n[nH]c3ccc(-c4c(F)cccc4Cl)cc23)CC1 [cpd 65, 1-Butyl-N-[5-(2-chloro-6-fluorophenyl)-1H-indazol-3-yl]piperidine-4-carboxamide hydrochloride]	110 nM
N#Cc1ccc(Cl)c(-c2ccc3[nH]nc(NC(=O)[C@@H]4CCC5(CCCCC5)NC4)c3c2)c1 (single isomer, unassigned) [compound 207, (3-)-N-[5-(2-Chloro-5-cyanophenyl)-1H-indazol-3-yl]-1-azaspiro[5.5]undecane-3-carboxamide]	229 nM
CN1CCC(C(=O)Nc2n[nH]c3ccc(-c4ccccc4C(F)(F)F)cc23)CC1 [cpd 104, 1-Methyl-N-{5-[2-(trifluoromethyl)phenyl]-1H-indazol-3-yl}piperidine-4-carboxamide hydrochloride]	330 nM
N#Cc1ccc(Cl)c(-c2ccc3[nH]nc(NC(=O)C4CC(NC5CC5)C4)c3c2)c1 (stereo not shown) [compound 155, N-[5-(2-Chloro-5-cyanophenyl)-1H-indazol-3-yl]-3-(cyclopropylamino)cyclobutanecarboxamide hydrochloride]	53 nM
